Data as given in US12102610B2, “Treprostinil salt” (Eli Lilly and Company, priority 2018, dated 2024).
Where a name gives a salt, the structure may show the parent alone.

Legend:
[1] = Thermal stability by thermal gravimetric analysis (TGA); assay type: physicochemical
Method: The thermal stability of samples of treprostinil erbumine salt, prepared as described above, and treprostinil free acid, purchased from a chemical supply company, are analyzed through thermal gravimetric analyses (TGA) performed on a TA Instruments TGA-Q5000 thermal gravimetric analyzer and differential scanning calorimetry (DSC) performed on a TA Instruments Q2000 differential scanning calorimeter. FIGS. 1 (erbumine salt) and 2 (free acid) show overlays of the TGA thermograms from 25-225° C. and the DSC thermograms from 25-300° C. […] DSC data for the erbumine salt show a single endothermic event (likely melt or decomposition) beginning at 143.73° C. and three endothermic events (71.17° C., 95.57° C., and 125.15° C.) for the free acid, corresponding to what is likely a hydrate along with at least two anhydrous crystal forms.

[2] = Hygroscopicity by dynamic vapor sorption/resorption, with XRD of samples from the adsorption/desorption process; assay type: physicochemical; conditions: for weight increase at the 80% relative humidity point: dried samples, sorption in 5% RH steps; for hygroscopicity classification: from weight increase at 80% relative humidity, European Pharmacopoeia monograph 5.11 definitions, experimental conditions differ; for physical form change on humidity exposure (XRD): samples collected at different points in the adsorption/desorption process
Method: Hygroscopicity analyses of treprostinil erbumine salt, prepared as described above, and treprostinil sodium, purchased from a chemical supply company, are performed on a TA Instruments Q5000SA sorption analyzer. Hygroscopicity profiles are generated on dried samples at 25° C., increasing relative humidity by 5% up to 95%, then decreasing in 5% intervals back down to 5% relative humidity. The samples are equilibrated at each increment until weight percent change is <0.0100 for 5 min.

| TGA weight loss ([1]; between 25-100° C.) | thermally stable up to ([1]; conclusion from TGA/DSC thermal characterization data) | weight increase at the 80% relative humidity point ([2]; 25° C.) | hygroscopicity classification [2] | TGA weight loss ([1]; between 26-70° C.) | relative humidity at which desorption of water begins ([2]; 25° C., desorption in 5% RH steps from 95%) | SMILES | physical form change on humidity exposure (XRD) [2] |
| --- | --- | --- | --- | --- | --- | --- | --- |
| 0.2318% | at least 100 °C | < 0.2% | non-hygroscopic to slightly hygroscopic |  |  | CCCCC[C@H](O)CC[C@@H]1[C@H]2Cc3cccc(OCC(=O)O)c3C[C@H]2C[C@H]1O [erbumine salt, 2-[[(1R,2R,3aS,9aS)-2-hydroxy-1-[(3S)-3-hydroxyoctyl]-2,3,3a,4,9,9a-hexahydro-1H-cyclopenta[g]naphthalen-5-yl]oxy]acetic acid t-butylamine] | did not show a physical form change |
|  |  |  |  | 1.090% |  | CCCCC[C@H](O)CC[C@@H]1[C@H]2Cc3cccc(OCC(=O)O)c3C[C@H]2C[C@H]1O [free acid, (1R,2R,3aS,9aS)-[[2,3,3a,4,9,9a-Hexahydro-2-hydroxy-1-[(3S)-3-hydroxyoctyl]-1H-benz[f]inden-5-yl]oxy]acetic acid] |  |
|  |  | 25% | very hygroscopic |  | 45 % RH | CCCCC[C@H](O)CC[C@@H]1[C@H]2Cc3cccc(OCC(=O)O)c3C[C@H]2C[C@H]1O [sodium salt] | non-reversible change to amorphous or poorly crystalline state |
